Experiment [1] concerns T-cell. As to the kind of experiment: IL-2 secretion from T-cells co-stimulated with anti-CD3 and anti-CD28 antibody (Biological Example 2). The class given is cell-based, human. As to conditions: Homo sapiens, T-cell, primary human total T-cells. In short, it runs like this: (§1)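 T-cells were stimulated with anti-CD3 antibody alone or with anti-CD28 antibody, in the presence or absence of Cbl-b inhibitor. IL-2 secretion or CD25 surface staining was measured, and values expressed as fold over the uninhibited baseline […].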

Experiment [2] has as its system T-cell. As to the kind of experiment: CD25 cell surface staining on T-cells co-stimulated with anti-CD3 and anti-CD28 antibody (Biological Example 2). The note with it: Homo sapiens, T-cell, primary human total T-cells. The class given is cell-based, human. The method in brief:
as §1

In a further experiment the target is Cbl-b (Homo sapiens, UniProt Q13191). As to the kind of experiment: Cbl-b activity assay (Cbl-b inhibition assay), TR-FRET of Cbl-b interaction with UbcH5B-Ub. It is filed as biochemical. The note with it: assay buffer with 100 mM NaCl, 60 nM Src kinase; read-out: Cbl-b activity IC50. The method in brief: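 UbcH5B (C85K) conjugated to N-terminally Bodipy-Fluorescein-labeled ubiquitin served as the fluorescent partner. After compound preincubation, Src kinase (60 nM) with 1 mM ATP and 5 mM MgCl2 (final) was added for 1.5 h, followed by a further 1 h incubation. Some values were obtained with 50 mM NaCl and 30 nM Src.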
Cbl-b, sequence (Q13191 36-427): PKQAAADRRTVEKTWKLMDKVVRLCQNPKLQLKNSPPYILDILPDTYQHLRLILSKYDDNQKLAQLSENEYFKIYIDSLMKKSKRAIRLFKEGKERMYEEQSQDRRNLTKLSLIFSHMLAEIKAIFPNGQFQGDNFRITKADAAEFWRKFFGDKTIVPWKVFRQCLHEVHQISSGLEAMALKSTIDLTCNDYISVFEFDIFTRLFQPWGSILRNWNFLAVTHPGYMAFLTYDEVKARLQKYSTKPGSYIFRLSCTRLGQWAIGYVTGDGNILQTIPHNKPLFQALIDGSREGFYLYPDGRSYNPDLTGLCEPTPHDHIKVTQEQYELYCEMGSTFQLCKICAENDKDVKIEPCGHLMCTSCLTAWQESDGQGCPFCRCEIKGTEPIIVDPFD
On the technique in general: Time-resolved FRET reads energy transfer from a long-lived donor to a nearby acceptor.

Experiment [3] deals with T-cell. In words: IL-2 secretion from T-cells stimulated with anti-CD3 antibody alone (Biological Example 2). It is filed as cell-based. The note with it: primary human total T-cells, read-out: IL-2 secretion, Anti-CD3 stimulation, fold change over baseline; for fold induction at 1 µM: 1 μM compound; for fold induction at 8 µM: 8 μM compound.
In experiment [4] the test system is T-cell. As to the kind of experiment: CD25 cell surface staining on T-cells stimulated with anti-CD3 antibody alone (Biological Example 2). The note with it: primary human total T-cells, baseline = anti-CD3/anti-CD28 stimulated cells without inhibitor, read-out: CD25 staining, Anti-CD3 stimulation, fold change over baseline; for fold induction at 1 µM: 1 μM compound; for fold induction at 8 µM: 8 μM compound. The class given is cell-based.

The next experiment concerns primary human NK cells. As to the kind of experiment: NK cell activation assessed by cytokine secretion (coculture with K562 NucRed target cells). The class given is cell-based. On the procedure:
Peripheral blood mononuclear cells (PBMC) were obtained either: 1) by using Ficoll-Paque™ (GE Healthcare) for separation of peripheral blood hematopoietic cells from buffy coats of healthy human donors; or 2) directly from LeukoPak donations. […] The cells were cultured overnight with IL-2 (60 ng/mL) at 37° C. 5% CO2. Cbl-b inhibitors were added 1 hour prior to stimulation and incubated at 37° C. 5% CO2 at a specific concentration (e.g., 10 μM, 1 μM, or 0.1 μM) with a final DMSO concentration of <0.1%. NK cells were co-cultured with target cells that were engineered to have a red nucleus (K562 NucRed) measurable by flow cytometry. […] The cells were mixed at the indicated ratios (e.g., 5:1, 1:1, or 1:5) of NK (effector cells) to K562 NucRed (target cells) for 6 hours. Cell free supernatants were collected and analyzed for cytokine secretion (e.g. TNFα, IFNγ, or MIP1β) by ELISA or Luminex multiplex kits following the manufacturer's protocol. IFNγ secretion was assessed using an R&D Systems ELISA kit (Catalog #DY285), TNFα secretion was assessed using an R&D Systems ELISA kit (Catalog #DY210), and MIP1β secretion was assessed using an R&D Systems ELISA kit (Catalog #DY271).
Readouts were reported as fold change over baseline. Baseline for this study was the measurement obtained from primary human NK effector cells cocultured with K562 NucRed target cells in the absence of a Cbl-b inhibitor. For NK cells cocultured with K562 NucRed cells, changes greater than 2.0-fold over baseline for cytokine secretion were considered a positive response (Table 10a and 10b).

Experiment [5] deals with T-cell. In words: IL-2 secretion from T-cells stimulated with anti-CD3 antibody alone (Biological Example 2). The class given is cell-based, human. As to conditions: T-cell, fold change over baseline, primary human total T-cells, read-out: IL-2 secretion Anti-CD3 stimulation.
In experiment [6] the test system is T-cell. As to the kind of experiment: CD25 cell surface staining on T-cells stimulated with anti-CD3 antibody alone (Biological Example 2). The class given is cell-based, human. The note with it: T-cell, fold change over baseline, primary human total T-cells, read-out: CD25 staining Anti-CD3 stimulation.
The next experiment deals with Cbl-b (residues 36-427) (Homo sapiens, UniProt Q13191). In words: Cbl-b binding assay (SPR, Biacore T200). The note with it: 20° C., 1:1 binding model. The method in brief:
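Steps: capture protein on NeutrAvidin surface; inject compound dilutions (8 or 10 points from 100 or 50 μM) 50 s; allow 90-180 s dissociation; regenerate 20 s with 0.3 M NaCl. Runs at 20° C in HEPES pH 7.5/100 mM NaCl/2% DMSO; 1:1 fitting.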
(SPR reads the build-up and loss of mass on a sensor chip optically.)

The mark [7] stands for this setting: 0.3 μM compound, baseline = anti-CD3/anti-CD28 stimulated cells without inhibitor, read-out: IL-2 secretion, Anti-CD3/Anti-CD28 stimulation, fold change over baseline.
Setting [8] is: 1 μM compound, baseline = anti-CD3/anti-CD28 stimulated cells without inhibitor, read-out: IL-2 secretion, Anti-CD3/Anti-CD28 stimulation, fold change over baseline.
The mark [9] stands for this setting: 4 μM compound, baseline = anti-CD3/anti-CD28 stimulated cells without inhibitor, read-out: IL-2 secretion, Anti-CD3/Anti-CD28 stimulation, fold change over baseline.
Setting [10] is: 0.3 μM compound, baseline = anti-CD3/anti-CD28 stimulated cells without inhibitor, read-out: CD25 staining, Anti-CD3/Anti-CD28 stimulation, fold change over baseline.
[11] abbreviates: 1 μM compound, baseline = anti-CD3/anti-CD28 stimulated cells without inhibitor, read-out: CD25 staining, Anti-CD3/Anti-CD28 stimulation, fold change over baseline.
Where [12] appears, read: 4 μM compound, baseline = anti-CD3/anti-CD28 stimulated cells without inhibitor, read-out: CD25 staining, Anti-CD3/Anti-CD28 stimulation, fold change over baseline.
The mark [13] stands for this setting: K562, 1:1 E/T, read-out: IFNγ secretion.
Where [14] appears, read: K562, 1:1 E/T, read-out: MIP1β secretion.
Setting [15] is: K562, 1:1 E/T, read-out: TNFα secretion.
The mark [16] stands for this setting: K562, 5:1 E/T, read-out: IFNγ secretion.
Setting [17] is: K562, 5:1 E/T, read-out: MIP1β secretion.
Where [18] appears, read: K562, 5:1 E/T, read-out: TNFα secretion.

Like-named read-outs stand apart in the source and are kept apart here.

Cbl-b (residues 36-427), sequence (Q13191 36-427): as above

For orientation: IC50 means the concentration that inhibits the measured activity by half. Turning to `C[C@@H](c1cccc(N2Cc3c(cccc3C(F)(F)F)C2=O)c1)[C@H](F)c1nncn1C` (racemic) [Compound 473, 2-(3-((1S,2S and 1R,2R)-1-fluoro-1-(4-methyl-4H-1,2,4-triazol-3-yl)propan-2-yl)phenyl)-4-(trifluoromethyl)isoindolin-1-one], the fold induction at 0.3 µM lay within 1.01 to 2.5 in the experiment with T-cell [1] (setting [7]) and 1.01 to 1.3 in the experiment on T-cell [2] (setting [10]). For the same molecule, the fold induction at 1 µM in the experiment on T-cell [1] (setting [8]) lay in the range of 1.01 to 2.5; in the experiment on T-cell [2] (setting [11]) it was 1.01 to 1.3; in the experiment with T-cell [3], 0.051 to 0.1; in the experiment with T-cell [4] it was 0.601 to 0.8. Moreover, the values for the fold induction at 4 µM in the experiment on T-cell [1] (setting [9]) and in the experiment with T-cell [2] (setting [12]) were 2.51 to 5 and 1.01 to 1.3, respectively. Besides, the IC50 on Cbl-b was 301 to 1000 nM. Further, the figures for the fold induction at 8 µM in the experiment with T-cell [3] and in the experiment with T-cell [4] were 0.151 to 0.2 and above 1, respectively.

Consider `C[C@@H](c1cccc(N2Cc3c(cccc3C(F)(F)F)C2=O)c1)C(F)c1nncn1C` (stereo in doubt) [Compound 474, 2-(3-((1S, 2S)-1-fluoro-1-(4-methyl-4H-1,2,4-triazol-3-yl)propan-2-yl)phenyl)-4-(trifluoromethyl)isoindolin-1-one], for which the fold induction at 0.3 µM in the experiment on T-cell [1] (setting [7]) was in the range of 1.01 to 2.5; with T-cell [2] (setting [10]), 1.01 to 1.3. The fold induction at 1 µM in the experiment with T-cell [1] (setting [8]) lay within 1.01 to 2.5; in the experiment with T-cell [2] (setting [11]), 1.01 to 1.3; with T-cell [3] it was 0.051 to 0.1; with T-cell [4], 0.601 to 0.8. In addition, the fold induction at 4 µM in the experiment on T-cell [1] (setting [9]) was in the range of 2.51 to 5; in the experiment on T-cell [2] (setting [12]), 1.01 to 1.3. Further, the fold induction at 8 µM with T-cell [3] is above 0.201; with T-cell [4], above 1.

Consider `Cn1cnnc1C(F)[C@](C)(F)c1cccc(N2Cc3c(cccc3C(F)(F)F)C2=O)c1` (stereo in doubt) [Compound 478a, 2-(3-((1S,2R)-1,2-difluoro-1-(4-methyl-4H-1,2,4-triazol-3-yl)propan-2-yl)phenyl)-4-(trifluoromethyl)isoindolin-1-one], for which the fold induction at 0.3 µM in the experiment on T-cell [1] (setting [7]) and with T-cell [2] (setting [10]) was below 1 in each case. Also, the fold induction at 1 µM in the experiment on T-cell [1] (setting [8]) is below 1; in the experiment on T-cell [2] (setting [11]), below 1; in the experiment on T-cell [3] it was below 0.05; in the experiment with T-cell [4], below 0.6. Also, the results for the fold induction at 4 µM in the experiment with T-cell [1] (setting [9]) and in the experiment with T-cell [2] (setting [12]) were below 1 and 1.01 to 1.3, respectively. The IC50 at Cbl-b was 301 to 1000 nM. The values for the fold induction at 8 µM in the experiment with T-cell [3] and with T-cell [4] were 0.051 to 0.1 and 0.601 to 0.8, respectively.

Regarding `Cn1cnnc1[C@@H](F)[C@](C)(F)c1cccc(N2Cc3c(cc(C4CC4)cc3C(F)(F)F)C2=O)c1` (stereo in doubt) [Compound 482, 6-cyclopropyl-2-[3-[(1R,2R)-1,2-difluoro-1-(4-methyl-4H-1,2,4-triazol-3-yl)propan-2-yl]phenyl]-4-(trifluoromethyl)-2,3-dihydro-1H-isoindol-1-one], the fold induction at 0.3 µM with T-cell [1] (setting [7]) was below 1; in the experiment with T-cell [2] (setting [10]), 1.01 to 1.3. Further, the fold induction at 1 µM fell in the range of 1.01 to 2.5 with T-cell [1] (setting [8]), 1.01 to 1.3 with T-cell [2] (setting [11]), 0.051 to 0.1 in the experiment on T-cell [3] and 0.601 to 0.8 in the experiment with T-cell [4]. Besides, the fold induction at 4 µM in the experiment on T-cell [1] (setting [9]) lay within 1.01 to 2.5; in the experiment with T-cell [2] (setting [12]) it was 1.01 to 1.3. The concentration for half-maximal inhibition (IC50) at Cbl-b lay in the range of 301 to 1000 nM. The fold induction at 8 µM in the experiment with T-cell [3] lay in the range of 0.051 to 0.1; with T-cell [4] it was 0.801 to 1.

In the case of `C[C@@H](Sc1nncn1C)c1cccc(NC(=O)c2ccc3ccccc3n2)c1` [Compound 9b, (R)-N-(3-(1-((4-methyl-4H-1,2,4-triazol-3-yl)thio)ethyl)phenyl)quinoline-2-carboxamide], the fold induction at 1 µM with primary human NK cells (setting [13]) was below 1; in the experiment with primary human NK cells (setting [14]) it was 1.01 to 2; with primary human NK cells (setting [15]), below 1; in the experiment on primary human NK cells (setting [16]) it was below 1; in the experiment on primary human NK cells (setting [17]), below 1; in the experiment with primary human NK cells (setting [18]), below 1. Moreover, the fold induction at 10 µM with primary human NK cells (setting [13]), in the experiment with primary human NK cells (setting [14]), with primary human NK cells (setting [15]), with primary human NK cells (setting [16]), with primary human NK cells (setting [17]) and in the experiment with primary human NK cells (setting [18]) was below 1 in each case.

By Kd is commonly meant the concentration at which binding is half-saturated. Lower therefore signals tighter binding. Turning to `Cc1ccc(C(=O)Nc2cccc([C@@H](C)Cc3nccn3C)c2)nc1C1CC1` [Compound 331], the fold induction at 0.3 µM in the experiment with T-cell [1] (fold change over baseline, 0.3 μM Cbl-b inhibitor, read-out: IL-2 secretion Anti-CD3/Anti-CD28 stimulation) is 1.01 to 2.5; in the experiment on T-cell [2] (fold change over baseline, 0.3 μM Cbl-b inhibitor, read-out: CD25 staining Anti-CD3/Anti-CD28 stimulation), below 1. Moreover, the fold induction at 1 µM in the experiment on T-cell [1] (fold change over baseline, 1 μM Cbl-b inhibitor, read-out: IL-2 secretion Anti-CD3/Anti-CD28 stimulation) was 1.01 to 2.5; in the experiment with T-cell [5] (1 μM Cbl-b inhibitor), below 0.05; in the experiment with T-cell [2] (fold change over baseline, 1 μM Cbl-b inhibitor, read-out: CD25 staining Anti-CD3/Anti-CD28 stimulation) it was below 1; in the experiment with T-cell [6] (1 μM Cbl-b inhibitor), below 0.6. Moreover, the fold induction at 4 µM with T-cell [1] (fold change over baseline, 4 μM Cbl-b inhibitor, read-out: IL-2 secretion Anti-CD3/Anti-CD28 stimulation) lay in the range of 1.01 to 2.5; in the experiment with T-cell [2] (fold change over baseline, 4 μM Cbl-b inhibitor, read-out: CD25 staining Anti-CD3/Anti-CD28 stimulation) it was 1.01 to 1.3. The fold induction at 8 µM is 0.051 to 0.1 in the experiment with T-cell [5] (8 μM Cbl-b inhibitor) and 0.601 to 0.8 in the experiment on T-cell [6] (8 μM Cbl-b inhibitor). In addition, the IC50 on Cbl-b lay in the range of 301 to 1000 nM. This molecule came in with a dissociation constant (Kd) on Cbl-b (residues 36-427) of 1000 to 3000 nM.
